Tests used:
[1] = tested on: ECHCG; assay: greenhouse pre-emergence herbicidal test; type: in vivo, Echinocloa crus-galli; details: pre-emergence method, scale from 0 to 100
Method in brief: (§1)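 Greenhouse plants receive the aqueous active ingredient straight after sowing, before emergence. Response is scored from 0 (no damage) to 100 (no emergence or complete kill of aerial parts) over a 2-4 week period.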

[2] = tested on: AMARE; assay: greenhouse post-emergence herbicidal test; type: in vivo, Amaranthus retroflexus; details: post-emergence method, scale from 0 to 100
Excerpt: (§2) The seeds of the test plants were sown separately for each species. For the post-emergence treatment, the test plants were first grown to a height of 3 to 15 cm, depending on the plant habit, and only then treated with the active ingredients which had been suspended or emulsified in water. For this purpose, the test plants were either sown directly and grown in the same containers, or they were first grown separately as seedlings and transplanted into the test containers a few days prior to treatment. Depending on the species, the plants were kept at 10-25° C. or 20-35° C., respectively. The test period extended over 2 to 4 weeks. During this time, the plants were tended, and their response to the individual treatments was evaluated. Evaluation was carried out using a scale from 0 to 100. 100 means no emergence of the plants, or complete destruction of at least the aerial moieties, and 0 means no damage, or normal course of growth. […] The plants used in the greenhouse experiments were of the following species: [table]

[3] = tested on: ECHCG; assay: greenhouse post-emergence herbicidal test; type: in vivo, Echinocloa crus-galli; details: post-emergence method, scale from 0 to 100
Method in brief: (§3)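 Post-emergence; plants at 3–15 cm, treated with aqueous suspension/emulsion of compound. 10–25 °C or 20–35 °C per species, 2–4 wk. Score 0 (no damage) to 100 (aerial parts destroyed).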

[4] = tested on: POLCO; assay: greenhouse post-emergence herbicidal test; type: in vivo, Polygonum convolvulus; details: post-emergence method, scale from 0 to 100
Excerpt: as §2

[5] = tested on: APESV; assay: greenhouse pre-emergence herbicidal test; type: in vivo, Apera spica-venti; details: pre-emergence method, scale from 0 to 100
Method in brief: as §1

[6] = tested on: ALOMY; assay: greenhouse post-emergence herbicidal test; type: in vivo, Alopercurus myosuroides; details: post-emergence method, scale from 0 to 100
Method in brief: as §3

SMILES	herbicidal activity against ECHCG ([1]; application rate 500 g/ha)	herbicidal activity against POLCO ([4]; application rate 500 g/ha)	herbicidal activity against APESV ([5]; application rate 500 g/ha)	herbicidal activity against ECHCG ([3]; application rate 500 g/ha)	also measured
CSc1ncc(-c2ccccc2C(C)C)c(C(=O)O)n1 [example 103]					herbicidal activity against ECHCG ([1]; application rate 2000 g/ha): good (A good herbicidal activity is given at values of at least 70); herbicidal activity against AMARE ([2]; application rate 2000 g/ha): very good (a very good herbicidal activity is given at values of at least 85); herbicidal activity against ECHCG ([3]; application rate 2000 g/ha): very good (a very good herbicidal activity is given at values of at least 85)
COC(=O)c1nc(C2CC2)ncc1-c1cccc(F)c1Cl [example 210]	very good (a very good herbicidal activity is given at values of at least 85)	very good (a very good herbicidal activity is given at values of at least 85)	very good (a very good herbicidal activity is given at values of at least 85)	very good (a very good herbicidal activity is given at values of at least 85)	
CC(C)(C)SC(=O)c1nc(C2CC2)ncc1-c1ccccc1Cl [example 281]		very good (a very good herbicidal activity is given at values of at least 85)	very good (a very good herbicidal activity is given at values of at least 85)		herbicidal activity against ALOMY ([6]; application rate 500 g/ha): very good (a very good herbicidal activity is given at values of at least 85)
O=C(O)c1nc(C2CC2)ncc1-c1c(F)cc(Cl)cc1Cl [example 148]					herbicidal activity against ALOMY ([6]; application rate 250 g/ha): very good (a very good herbicidal activity is given at values of at least 85); herbicidal activity against POLCO ([4]; application rate 250 g/ha): very good (a very good herbicidal activity is given at values of at least 85); herbicidal activity against APESV ([5]; application rate 250 g/ha): very good (a very good herbicidal activity is given at values of at least 85)
COC(=O)c1nc(C2CC2)ncc1-c1ccccc1OC(F)F [example 242]	very good (a very good herbicidal activity is given at values of at least 85)			good (A good herbicidal activity is given at values of at least 70)	herbicidal activity against AMARE ([2]; application rate 500 g/ha): very good (a very good herbicidal activity is given at values of at least 85)
COC(=O)c1nc(C2CC2)ncc1-c1cccc(Cl)c1Cl [example 211]					herbicidal activity against ALOMY ([6]; application rate 1000 g/ha): very good (a very good herbicidal activity is given at values of at least 85); herbicidal activity against AMARE ([2]; application rate 1000 g/ha): very good (a very good herbicidal activity is given at values of at least 85)
COC(=O)CSC(=O)c1nc(C2CC2)ncc1-c1ccccc1Cl [example 278]	very good (a very good herbicidal activity is given at values of at least 85)	very good (a very good herbicidal activity is given at values of at least 85)	very good (a very good herbicidal activity is given at values of at least 85)		
Cc1ccccc1-c1cnc(C(C)C)nc1C(=O)O [example 33]	very good (a very good herbicidal activity is given at values of at least 85)	good (A good herbicidal activity is given at values of at least 70)	very good (a very good herbicidal activity is given at values of at least 85)	good (A good herbicidal activity is given at values of at least 70)	
CCOc1ncc(-c2ccccc2C)c(C(=O)O)n1 [example 67]	good (A good herbicidal activity is given at values of at least 70)	very good (a very good herbicidal activity is given at values of at least 85)	very good (a very good herbicidal activity is given at values of at least 85)	good (A good herbicidal activity is given at values of at least 70)	
O=C(O)c1nc(C2CC2)ncc1-c1ccccc1OC(F)F [example 181]	very good (a very good herbicidal activity is given at values of at least 85)	very good (a very good herbicidal activity is given at values of at least 85)	very good (a very good herbicidal activity is given at values of at least 85)	good (A good herbicidal activity is given at values of at least 70)	
O=C(O)c1nc(C2CC2)ncc1-c1cc(Cl)ccc1Cl [example 143]	very good (a very good herbicidal activity is given at values of at least 85)	very good (a very good herbicidal activity is given at values of at least 85)	very good (a very good herbicidal activity is given at values of at least 85)	good (A good herbicidal activity is given at values of at least 70)	
CCc1ccccc1-c1cnc(C2CC2)nc1C(=O)O [example 174]	very good (a very good herbicidal activity is given at values of at least 85)		very good (a very good herbicidal activity is given at values of at least 85)	very good (a very good herbicidal activity is given at values of at least 85)	herbicidal activity against AMARE ([2]; application rate 500 g/ha): very good (a very good herbicidal activity is given at values of at least 85)
COc1ccc(Cl)c(-c2cnc(C3CC3)nc2C(=O)O)c1 [example 145]	very good (a very good herbicidal activity is given at values of at least 85)	very good (a very good herbicidal activity is given at values of at least 85)	very good (a very good herbicidal activity is given at values of at least 85)	very good (a very good herbicidal activity is given at values of at least 85)	
CSc1ncc(-c2cc(C)ccc2C)c(C(=O)O)n1 [example 92]					herbicidal activity against ECHCG ([1]; application rate 2000 g/ha): very good (a very good herbicidal activity is given at values of at least 85); herbicidal activity against AMARE ([2]; application rate 2000 g/ha): very good (a very good herbicidal activity is given at values of at least 85); herbicidal activity against APESV ([5]; application rate 2000 g/ha): good (A good herbicidal activity is given at values of at least 70); herbicidal activity against ECHCG ([3]; application rate 2000 g/ha): good (A good herbicidal activity is given at values of at least 70)
CCOc1ncc(-c2cc(C)ccc2C)c(C(=O)O)n1 [example 68]	very good (a very good herbicidal activity is given at values of at least 85)	very good (a very good herbicidal activity is given at values of at least 85)	very good (a very good herbicidal activity is given at values of at least 85)	good (A good herbicidal activity is given at values of at least 70)	
COC(=O)c1nc(C2CC2)ncc1-c1c(C)cccc1C [example 225]	very good (a very good herbicidal activity is given at values of at least 85)	very good (a very good herbicidal activity is given at values of at least 85)	very good (a very good herbicidal activity is given at values of at least 85)	good (A good herbicidal activity is given at values of at least 70)	
Cc1cc(-c2cnc(C3CC3)nc2C(=O)O)c(C)cc1F [example 167]					herbicidal activity against ECHCG ([1]; application rate 100 g/ha): very good (a very good herbicidal activity is given at values of at least 85); herbicidal activity against AMARE ([2]; application rate 100 g/ha): good (A good herbicidal activity is given at values of at least 70); herbicidal activity against APESV ([5]; application rate 100 g/ha): very good (a very good herbicidal activity is given at values of at least 85); herbicidal activity against ECHCG ([3]; application rate 100 g/ha): very good (a very good herbicidal activity is given at values of at least 85)
